# Measurements taken from patent publication US20220380829A1, “Method of Diagonosizing Pathogens and their Antimicrobial Susceptibility” (HANGZHOU DIAN MEDICAL LABORATORY CO., LTD., priority 2019, published 2022).
# Test system: Candida tropicalis
# Experiment: Broth microdilution (M27-A3, M27-S4), gold standard culture-based AST
# Format: cell-based
structure (smiles),measurement,setting,value
OC(Cn1cncn1)(Cn1cncn1)c1ccc(F)cc1F [FLU],Resistance profiles by broth microdilution (the gold standard),blind-1,R
same,Resistance profiles by broth microdilution (the gold standard),blind-2,S
same,Resistance profiles by broth microdilution (the gold standard),blind-3,R
same,Resistance profiles by broth microdilution (the gold standard),blind-4,R
same,Resistance profiles by broth microdilution (the gold standard),blind-5,S
same,Resistance profiles by broth microdilution (the gold standard),blind-6,S
